{"source": "patent US12611442B2", "about": "“mRNA encoding engineered CFTR” (Translate Bio, Inc., priority 2019, dated 2026)", "molecules": {"B1": {"name": "CFTR Protein E: E1371Q, ATP hydrolysis deficient (SEQ ID NO: 44, 48) (nucleic acid)", "DNA": "GTGCAGCCCCTGCTGCTCGGCAGAATCATCGCCTCATACGATCCAGACAACAAGGAAGAAAGAAGCATCGCCATCTACCTGGGCATTGGCCTCTGCCTCCTGTTTATTGTGCGGACTCTGCTGCTGCACCCAGCAATTTTCGGGTTGCATCATATTGGCATGCAGATGCGCATTGCTATGTTTTCCCTCATCTACAAAAAGACACTGAAACTCAGCTCCCGGGTGCTGGACAAGATCTCCATCGGCCAACTGGTGTCTCTCCTGAGCAATAACTTGAATAAGTTCGACGAAGGGCTGGCCCTGGCACACTTCGTGTGGATTGCCCCCCTGCAGGTGGCCCTGCTGATGGGACTGATTTGGGAACTGCTGCAGGCTAGCGCTTTCTGCGGCCTGGGGTTCCTGATCGTGCTGGCACTGTTTCAGGCAGGCCTGGGCCGTATGATGATGAAGTACAGAGACCAGAGGGCCGGGAAGATCTCCGAACGGCTCGTTATTACCTCTGAGATGATCGAGAACATTCAGTCTGTGAAAGCCTACTGCTGGGAGGAGGCTATGGAGAAGATGATCGAGAATCTGAGACAGACCGAGCTGAAGCTGACCAGAAAGGCCGCCTACGTGAGGTACTTCAACAGCAGTGCCTTCTTCTTCTCTGGCTTCTTCGTTGTGTTTCTGAGCGTGCTGCCATACGCTCTCATCAAAGGCATCATCCTGCGGAAGATCTTCACCACCATCAGCTTTTGCATCGTGCTTAGAATGGCCGTGACCCGGCAGTTCCCATGGGCCGTGCAAACTTGGTATGATTCCCTGGGCGCCATCAACAAAATCCAGGATTTCCTGCAGAAGCAGGAATACAAGACACTCGAATATAATCTCACAACTACTGAGGTGGTTATGGAGAACGTGACTGCCTTCTGGGAGGAGGGGTTCGGAGAGCTTTTTGAGAAGGCAAAACAGAATAACAACAACCGCAAAACCAGCAACGGCGACGACAGCCTGTTCTTCTCCAATTTTTCTCTCCTGGGAACACCCGTCCTCAAAGACATCAACTTTAAGATCGAGAGGGGACAGCTGCTCGCAGTCGCCGGATCCACAGGCGCCGGCAAGACCTCTCTGCTGATGGTTATCATGGGCGAACTGGAGCCATCCGAGGGCAAGATTAAGCACAGTGGAAGAATCTCCTTTTGTAGCCAGTTCAGTTGGATTATGCCCGGCACTATTAAGGAGAATATCATTTTTGGGGTGAGCTATGATGAGTATCGGTATCGGAGCGTTATCAAAGCCTGTCAGCTGGAGGAGGATATCAGCAAATTCGCAGAGAAGGATAATATCGTGCTGGGGGAGGGGGGAATCACCCTGAGCGGAGGCCAGAGAGCCAGAATCTCACTGGCCCGGGCCGTCTACAAGGACGCCGACCTTTACCTTCTGGACAGTCCCTTTGGATATCTGGATGTGCTGACTGAAAAGGAGATCTTCGAGTCTTGTGTGTGCAAG"}}, "assay_type_in_all_cases": "cell-based", "key": {"FRT cells [1]": {"system": "FRT cells", "experiment": "Time-course Ussing chamber assay (duration of activity, 22 and 44 hours)", "conditions": "at 44 hours (measured at 22 and 44 hours); FIG. 14A, 14B", "protocol": "In this example, duration of activity of various phosphomimetic CFTR mutants were tested in combination with the K14R mutation using a time-course Ussing chamber assay as described in Example 3.\nActivity of various CFTR proteins listed in Table 12 were measured at 22 and 44 hours. Short-circuit current (Isc), the movement of ions as measured in the Ussing chamber from active transport, was plotted for each CFTR protein at 22 and 44 hours."}, "HEK293 cells": {"system": "HEK293 cells", "experiment": "CFTR protein expression by protein gel / Western blot (C band)", "conditions": "for C-band expression (quantification of Western blot): FIG. 11A, 11B; for expression in the C band (mature complex glycosylated CFTR): HEK293 lysates, FIG. 18A-18C", "protocol": "The CFTR band is depicted by an arrow (FIG. 3A).\nTo examine the expression of CFTR mutants, expression of the wild-type CFTR, 15E, 13E, and E1371Q mutants was quantified as shown in FIG. 11A and FIG. 11B.\nStudies were also performed to assess in vitro translation and tolerability of CFTR mutants. […] The “C band” refers to mature complex glycosylated form of CFTR."}, "FRT cells [2]": {"system": "FRT cells", "experiment": "Ussing chamber assay: short-circuit current (chloride ion transport) of cells transfected with WT or engineered CFTR mRNA; sequential forskolin, VX-770, CFTRinh-172", "protocol": "Chloride ion transport was measured by an Ussing chamber. This assay provides an indication of chloride flux based on the principle that the epithelium pumps ions from one side to another and ions leak back through tight junctions situated between epithelial cells. The voltage difference between two sides of the epithelium is measured using two voltage electrodes placed near the tissue/epithelium. The voltage is cancelled out by injecting current, using two other electrodes placed away from the epithelium. The short circuit current is measured as net chloride ion transport.\nTraces show short-circuit current measurements during sequential additions of forskolin, an activator of CFTR-mediated chloride secretion, and VX-770 (ivacaftor), a potentiator compound that directly increases phosphorylation-dependent CFTR channel opening on amphotericin B-permeabilized membranes. CFTR proteins A-D responded to forskolin activation resulting in increased chloride ion conductance. Forskolin activation was not observed for CFTR Protein E, the ATP hydrolysis deficient E1371Q mutant. Further addition of VX-770 increased conductance in CFTR Proteins B-D.\nIn this example, activation of various engineered CFTR protein mutants (proteins B-E, discussed above) were compared with the activation of wild type CFTR (protein A) using the Ussing assay as described in Example 3. In this example the engineered CFTR protein activity was tested at a low concentration of 0.35 μg (FIG. 4).\nIn this example, activities of various engineered phosphomimetic CFTR protein mutants (Table. 9) were compared with the activity of wild-type CFTR using the Ussing chamber assay as described in Example 3."}, "[3]": {"conditions": "HEK293 cells, versus wild-type CFTR"}, "[4]": {"conditions": "0.35 μg (low concentration), FRT cells, FIG. 4"}}}
{"molecule": "15E/K14R: K14R plus the 15E substitutions (codon optimized: SEQ ID NO: 51)", "values": [{"measurement": "remaining activity (short-circuit current, Isc)", "setting": "FRT cells [1]", "result": "highest remaining activity at 44 hours"}]}
{"molecule": "13E: S422E, S660E, S670E, S686E, T690E, S700E, S712E, S753E, T787E, T788E, T790E, S795E, S813E (codon optimized: SEQ ID NO: 52)", "values": [{"measurement": "C-band expression (quantification of Western blot)", "setting": "HEK293 cells; [3]", "result": "increased C-band expression"}, {"measurement": "increase in protein (C-band, quantification of Western blot)", "setting": "HEK293 cells; HEK293 cells, versus wild-type CFTR, FIG. 11B", "result": "greater than 2 fold"}, {"measurement": "expression in the C band (mature complex glycosylated CFTR)", "setting": "HEK293 cells", "result": "increased expression in the C band"}, {"measurement": "CFTR activity, glutamate (E) versus aspartate (D) substitutions", "setting": "FRT cells [2]; 13 or 15 R-domain substitutions, FRT cells, FIG. 9A, 9B, 11E", "result": "greater CFTR activity"}, {"measurement": "effect of additional K14R substitution on chloride conductance of the named protein", "setting": "FRT cells [2]; FIG. 14C", "result": "no effect"}, {"measurement": "change in activity when K14R mutation is combined with the named phosphomimetic mutant", "setting": "FRT cells [2]; maximum activated current, FRT cells, FIG. 11C, 11D", "result": "no significant increase in the activity"}, {"measurement": "remaining activity (short-circuit current, Isc)", "setting": "FRT cells [1]", "result": "highest remaining activity at 44 hours"}]}
{"molecule": "E1371Q/K14R: E1371Q plus K14R (codon optimized: SEQ ID NO: 49)", "values": [{"measurement": "expression compared to wild-type CFTR and to E1371Q-only CFTR", "setting": "HEK293 cells; FIG. 13B", "result": "increased expression"}, {"measurement": "expression in the C band (mature complex glycosylated CFTR)", "setting": "HEK293 cells", "result": "increased expression in the C band"}, {"measurement": "activity compared to wild-type CFTR and to E1371Q-only CFTR", "setting": "FRT cells [2]; FRT cells, FIG. 13A, 13B", "result": "increased activity"}, {"measurement": "remaining activity (short-circuit current, Isc)", "setting": "FRT cells [1]", "result": "high remaining activity at 44 hours"}]}
{"molecule": "B1", "values": [{"measurement": "C-band expression (quantification of Western blot)", "setting": "HEK293 cells; [3]", "result": "increased C-band expression"}, {"measurement": "forskolin activation", "setting": "FRT cells [2]; 0.35 μg (low concentration), FIG. 4", "result": "forskolin activation at a lower dose in comparison to other constructs tested"}, {"measurement": "conductance prior to forskolin addition", "setting": "FRT cells [2]; [4]", "result": "significant pre-forskolin conductance"}, {"measurement": "overall activity compared to wild-type CFTR", "setting": "FRT cells [2]; [4]", "result": "overall increased activity"}, {"measurement": "response to forskolin activation (chloride ion conductance, short-circuit current)", "setting": "FRT cells [2]; 0.5 μg CFTR (high concentration), amphotericin B-permeabilized membranes, FIG. 3B", "result": "not observed"}, {"measurement": "forskolin activation and increased activity by addition of VX-770", "setting": "FRT cells [2]; FIG. 12A, 12B", "result": "minimal response to VX-770"}, {"measurement": "activity / conductance (short circuit current) compared to wild-type CFTR", "setting": "FRT cells [2]; FRT cells, FIG. 12A, 12B", "result": "overall higher conductance than the wild-type CFTR"}, {"measurement": "activity pattern across doses", "setting": "FRT cells [2]; doses 0.05-0.35 μg/well, FIG. 5", "result": "consistent activity pattern across treatments"}, {"measurement": "effect of K1218R mutation on activity of the named CFTR protein", "setting": "FRT cells [2]; short-circuit conductivity, FIG. 15C", "result": "decreases activity"}]}
